The source of these data is patent publication US10125358B2, “Methods and compounds for increasing threonyl-tRNA synthetase activity” (UNIVERSITY OF VERMONT AND STATE AGRICULTURAL COLLEGE, priority 2012, dated 2018).

“Also recorded” adds a separate entry of the source.

Data set [1] deals with T1, TARS (Homo sapiens, UniProt P26639).
T1 sequence (P26639 1-723): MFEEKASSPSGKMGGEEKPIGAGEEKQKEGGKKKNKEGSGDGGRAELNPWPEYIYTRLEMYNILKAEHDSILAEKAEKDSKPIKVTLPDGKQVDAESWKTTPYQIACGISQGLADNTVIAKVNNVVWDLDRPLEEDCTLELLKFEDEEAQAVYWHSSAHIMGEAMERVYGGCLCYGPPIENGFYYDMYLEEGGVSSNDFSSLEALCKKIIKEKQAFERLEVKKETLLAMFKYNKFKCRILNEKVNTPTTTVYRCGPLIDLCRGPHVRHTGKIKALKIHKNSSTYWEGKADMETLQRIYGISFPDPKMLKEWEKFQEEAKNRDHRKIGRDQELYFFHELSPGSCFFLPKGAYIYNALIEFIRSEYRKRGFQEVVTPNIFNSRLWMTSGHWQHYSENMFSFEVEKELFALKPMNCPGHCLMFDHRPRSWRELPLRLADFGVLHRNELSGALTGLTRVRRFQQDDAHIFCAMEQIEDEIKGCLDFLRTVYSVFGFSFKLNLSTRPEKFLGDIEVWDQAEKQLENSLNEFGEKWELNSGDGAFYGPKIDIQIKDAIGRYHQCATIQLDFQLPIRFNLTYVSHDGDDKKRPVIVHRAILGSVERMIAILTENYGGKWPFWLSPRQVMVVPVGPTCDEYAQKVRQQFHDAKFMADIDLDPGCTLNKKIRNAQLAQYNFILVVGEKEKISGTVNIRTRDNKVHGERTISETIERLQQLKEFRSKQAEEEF
As to the kind of experiment: GTPase (GTP hydrolysis) assay. As to conditions: 10 μM compound. More on the design: His6 (N); made in house; host or cells: E. coli Rosetta 2 (DE3)pLysS, plasmid pET28a hctThrRS. The data set is classed as biochemical.

Data set [2] relates to SKOV-3 cells. As to the kind of experiment: HIF-1α stabilization in hypoxia (Western blot). The data set is classed as cell-based. As to conditions: for HIF-1α protein stabilization: hypoxia (2% O2), 6 h. Here is the method: After treatments, cells were harvested into sample buffer containing: 0.2 M Tris-HCL, 4% SDS, 4% β-mercaptoethanol, 40% glycerol, 4 μM pyronin Y. Extracts were sheared through a 24-gauge syringe. Samples were separated by 10% SDS-PAGE and transferred to nitrocellulose membrane and probed with rabbit polyclonal anti-TARS (1:500; Santa Cruz Biotechnology, Dallas, Tex.) or monoclonal anti-HIF-1α (BD Transduction Laboratories, [BD Biosciences, San Jose, Calif.]) (Lounsbury, Beddow et al. 1994). Secondary antibodies were HRP-goat-anti-mouse and HRP-goat-anti-rabbit (1:5,000; Jackson Laboratories, Bar Harbor, Me.).

Data set [3] has as its target T1, TARS. As to the kind of experiment: Ap4A formation assay (TLC, [α-32P]-ATP). The data set is classed as biochemical. More on the design: His6 (N); made in house; host or cells: E. coli Rosetta 2 (DE3)pLysS, plasmid pET28a hctThrRS. The settings on record: 10 μM compound.
Data set [4] deals with T1, TARS. As to the kind of experiment: Ki of borrelidin compounds for TARS. The class given is biochemical. As to conditions: calculated; data not shown.
The target of data set [5] is T1, TARS. As to the kind of experiment: Ap4G formation assay (TLC, [α-32P]-GTP). The data set is classed as biochemical. More on the design: His6 (N); made in house; host or cells: E. coli Rosetta 2 (DE3)pLysS, plasmid pET28a hctThrRS. As to conditions: human TARS, 10 μM compound.
The test system of data set [6] is chorioallantoic membrane (CAM) of chicken embryos. As to the kind of experiment: Chick chorioallantoic membrane (CAM) assay. The data set is classed as in vivo. The settings on record: purified protein applied daily to gelfoam sponge, 72 h. Here is the method: Chick Chorioallantoic Membrane Assay—
Fertilized chicken eggs (Sunrise Farms, Catskill, N.Y.) day 1-2 post-laying were incubated in a humidified incubator at 37° C. for 72 h. Cleaned eggs were cracked and plated in a sterile 10 cm^2 tissue culture-treated dish and incubated at 37° C. for another 7 days. On developmental day 10, 1 mm^3 sterile gelatin sponge pieces (Surgifoam®; Johnson & Johnson Wound Management, Somerville, N.J.) were placed within the outer one-third of the membrane between large vessels. […] All compounds were applied in 10 μl to the CAM every 24 h for 72 h. Images were taken using a Leica MZ6 stereomicroscope every 24 h. Compounds were scored according to a modified version of Intensity Scoring as previously described (Ribatti, Nico et al. 2006). Briefly, each experimental condition was given a blinded score from 0-5 based on the change in the extent of vessel convergence and formation in proximity to the sponge from day 0 to day 3. Total score is averaged individual experimental condition scores from at least 15 replicates.
Fertilized chicken embryos were cultured ex-ova and, starting at developmental day 10, agents were applied daily to gelfoam sponges on the CAM. Images were recorded daily over 72 h and scored blindly according to a modified version Intensity Scoring as previously described (Ribatti, Nico et al. 2006). Additional details regarding methods are provided in the Methods and Materials section of Example 1.

Data set [7] relates to HUVEC. As to the kind of experiment: Transwell migration assay. As to conditions: 100 nM protein in migration compartment, 4 h. The class given is cell-based, human. Here is the method: Transwell Migration Assay—
Migration was assessed using transwell inserts (Svensson, Kucharzewska et al. 2011). […] Cultures were incubated for 4 h, fixed in 10% formalin, and stained with 10 μg/ml DAPI solution (Roche) following removal of cells from the top layer of the chamber with a cotton swab. Migrated cells were imaged using a 4× objective on the Olympus IX70 Inverted microscope (Olympus). DAPI-stained nuclei were counted using ImageJ software.

The nature of data set [8]: LARS steady state ATPase activity (32P-ATP to AMP). The class given is biochemical. The settings on record: 1 μM human LARS. Here is the method: LARS steady state ATPase activity was determined using the same procedure as for TARS aminoacylation with the following modifications. […] ATP (PerkinElmer, Waltham, Mass.) was added. Reactions were incubated for 3 minutes at 37° C. and initiated with the addition of 1 μM human LARS. At various time points 5 μl aliquots were quenched in 45 μl of 500 mM sodium acetate and 0.1% sodium dodecyl sulfate. For each sample, 1 μl was spotted onto a CCM cellulose PEI F plates (EMD) and resolved via thin-layer chromatography in 0.75 M potassium phosphate buffer mobile phase. Radioactive signals were detected via phosphorimaging and AMP production overtime was quantified using Quantity One v 4.6.6 software (Bio-Rad, Hercules, Calif.).

In the case of `C[C@@H]1C[C@H](C)C[C@H](C)[C@@H](O)CC(=O)O[C@H]([C@@H]2CCC[C@H]2C(=O)O)C/C=C/C=C(/C#N)[C@H](O)[C@@H](C)C1` [borrelidin], in data set [1], the “change of TARS GTPase activity upon treatment with inhibitor” value is reported as “no observable change”. The HIF-1α transcription entry in data set [2] (SK-OV3 cells responding to hypoxia) is “no change in HIF-1α transcription”. The figures for the HIF-1α protein stabilization entry in data set [2] and in data set [2] (listed as BC144) were “reduce HIF-1α stabilization” and “diminished the levels of HIF-1α protein stabilization”, respectively. Further, the “Ap4A synthesis, inhibition (qualitative)” value in data set [3] (human TARS) is listed as “at least partially inhibited”. Besides, the “decrease in Ap4A formation activity” value in data set [3] (wildtype TARS) is listed as 59.4%. The Ki in data set [4] was 4.6 nM. Besides, the “Ap4G synthesis, inhibition (qualitative)” value in data set [5] is recorded as “at least partially inhibited”.
As for “LARS: N-terminal HIS6-tagged human leucyl tRNA synthetase purified from E. coli”, in data set [6], the “CAM vessel formation / vascularity, effect of applied synthetase” value is “no observable effect; also recorded: no effect on angiogenesis”. In data set [7], the “migration of endothelial cells” value is recorded as “did not affect migration”. Further, the “LARS enzyme activity (conversion of 32P-ATP to AMP)” value in data set [8] was “exhibits enzyme activity”.
